One test addresses T1, Stat3 (Mus musculus, UniProt P42227).
T1 construct: endogenous in cells; host or cells: murine bone marrow derived macrophages (WT and Itgam-/-)
The experiment in a line: mRNA expression in macrophages incubated with Stat3 inhibitor. It counts as cell-based, murine. The protocol: Macrophage Polarization—Bone marrow derived macrophages were polarized with either IFNγ (20 ng/ml, Peprotech) plus LPS (100 ng/ml, Sigma) or LPS alone for 24 h or IL-4 (20 ng/ml, Peprotech) for 24-48 h. In some cases, macrophages were incubated with inhibitors of Stat3 ([…]) or cMyc (10058-F4, Selleck). In other experiments, BMM were treated with LLC tumor conditioned media (TCM) or 100 ng/ml TGF-β (PeproTech) for 6 h to analyze changes in protein and gene expression levels. TCM was obtained by culturing LLC in serum free media for 18 h followed by collecting the supernatant and sterile filtering prior to use. In some experiments TGF-β signaling was inhibited using SB5253324 added 30 min prior and during the 6 h stimulation. Total RNA was harvested from macrophages using the RNeasy Mini Kit (Qiagen) according to the manufacturer's instructions. Secreted protein was measured in culture supernatants by ELISA assays.
Analysis of Gene Expression—Total RNA was isolated from cells using RNeasy Mini Kit (Qiagen). cDNA was prepared using 1 μg RNA with the qScript cDNA Synthesis Kit (Quanta Biosciences) or the SuperScript III First-Strand Synthesis Kit (Invitrogen). […]

The subject of test [1] is LLC tumors. The experiment in a line: Imatinib treatment of WT and Itgam-/- mice bearing LLC tumors. It counts as in vivo.
Test [2] relates to LLC tumors. In words: Gemcitabine treatment of WT and Itgam-/- mice with LLC tumors. In kind it is in vivo. The protocol: Tumor Studies—Subcutaneous tumor studies: 5×10^5 LLC or B16 cells were injected subcutaneously into syngeneic (C57BL/6) 6- to 8-week old WT or Itgam^−/− mice (n=18). Tumors were excised at 7, 14 or 21 days, cryopreserved in OCT, lysed for RNA purification or collagenase-digested for flow cytometric analysis of CD11b+, F4/80+ and Gr1+ expression. Tumor volumes were calculated using the equation (l^2×w)/2. CL66-luc cells (0.5×10^6 cells) were suspended in 50 μL of basement membrane extract Matrigel (BD Pharmingen) in PBS (1:1) and inoculated orthotopically in the fourth mammary fat pad of female Balb/cJ mice. Tumor dimensions were measured every 2 days, and tumor volume was calculated using the equation: V (mm^3)=[…], where length is the longest diameter of the tumor and width is the shorter diameter.

T1 sequence (P42227 whole entry): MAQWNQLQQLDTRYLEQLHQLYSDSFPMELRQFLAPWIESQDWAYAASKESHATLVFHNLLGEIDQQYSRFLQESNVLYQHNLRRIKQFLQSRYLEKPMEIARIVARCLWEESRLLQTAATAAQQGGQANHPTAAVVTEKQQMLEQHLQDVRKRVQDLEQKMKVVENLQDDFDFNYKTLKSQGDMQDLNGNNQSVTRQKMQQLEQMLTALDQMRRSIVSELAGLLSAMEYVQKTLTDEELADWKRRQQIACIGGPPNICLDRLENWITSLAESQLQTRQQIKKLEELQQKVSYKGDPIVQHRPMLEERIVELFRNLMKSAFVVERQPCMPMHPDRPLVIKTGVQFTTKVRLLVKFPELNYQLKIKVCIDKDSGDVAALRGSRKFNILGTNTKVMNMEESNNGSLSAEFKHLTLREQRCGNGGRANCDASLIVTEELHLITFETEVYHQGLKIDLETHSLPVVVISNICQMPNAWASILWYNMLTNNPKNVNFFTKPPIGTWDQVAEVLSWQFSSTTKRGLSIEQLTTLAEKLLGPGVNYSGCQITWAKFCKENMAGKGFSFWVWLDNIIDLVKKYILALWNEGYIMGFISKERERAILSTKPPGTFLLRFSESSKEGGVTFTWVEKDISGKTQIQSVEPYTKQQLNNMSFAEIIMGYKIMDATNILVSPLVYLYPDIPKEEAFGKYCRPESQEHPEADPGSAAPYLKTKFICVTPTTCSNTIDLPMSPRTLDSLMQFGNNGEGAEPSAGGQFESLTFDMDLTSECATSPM

For the compound `C1=Cc2nc1cc1ccc([nH]1)c(-c1ccccc1)c1nc(cc3ccc([nH]3)c2-c2ccccc2)C=C1` [5,15-DPP], on Stat3, the “Il6 expression in Itgam-/- macrophages” value is on record as “did not affect the high levels of Il6 expression” and the “immune suppressive factor expression in Itgam-/- macrophages” value is reported as “reduced to WT macrophage levels”.
For the compound `Cc1ccc(NC(=O)c2ccc(CN3CCN(C)CC3)cc2)cc1Nc1nccc(-c2cccnc2)n1` [Imatinib, imatinib], the “tumor growth and vascular normalization in Itgam-/- mice” value in the test with LLC tumors [1] is “suppressed the enhanced tumor growth and increased vascular normalization observed in Itgam−/− mice”.
Consider `Nc1ccn([C@@H]2O[C@H](CO)[C@@H](O)C2(F)F)c(=O)n1` [gemcitabine], for which the “tumor growth in Itgam-/- mice versus WT mice” value in the test on LLC tumors [2] is “suppressed tumor growth more profoundly than gemcitabine treatment of WT mice”.

(Values after US11679100B2, “Methods of enhancing immunity” (The Regents of the University of California, priority 2018, dated 2023).)
